Laboratory results published in EP1342719B1, “Benzodiazepine derivatives useful as CCK-Receptor Antagonists” (Ferring BV, priority 1992, dated 1993).
Where two headings read alike, the source gives them in different places.

Experiments:
[1] = system: pentagastrin-stimulated gastric acid secretion; assay: Inhibition of pentagastrin-stimulated gastric acid secretion in dog (Heidenhain pouch); type: in vivo, male beagle dogs; conditions: maximum inhibition of stimulated acid output, oral, pentagastrin 8 µg/kg/hr infusion, mean for 3 - 5 animals
Experimental: Assays were performed using male beagle dogs (7 - 12 kg) two months after surgical preparation of Heidenhain pouches following the conventional procedure. Each dog was used only once per week.
The animals were deprived of food with free access to water for 18 hr prior to the experiment. The gastric juice was collected from the gastric canula by gravity drainage every 15 min, and acid output was determined by automatic titration with 0.05 N NaOH to pH 7.0 (Comtite-7, Hiranuma, Tokyo, Japan). Drugs were administered orally 3 hr after the start of the pentagastrin (8 µg/kg/hr) infusion. The effect of each drug was calculated as the percentage inhibition of stimulated acid output. […] Each result is a mean for 3 - 5 animals.

[2] = target: T1, CCK-B receptors (Rattus norvegicus, UniProt P30553); assay: Measurement of binding affinity for CCK-B receptors ([125I]BH-CCK-8 displacement, brain membrane preparation); parameters: species or system SD rats; conditions: for A/B Ratio: selectivity, ratio IC50 (CCK-A)/IC50 (CCK-B)
T1 construct: the whole brain was immediately excised from each of the rats and homogenized; from tissue; host or cells: SD rat whole-brain membrane preparation
T1 sequence (P30553 whole entry): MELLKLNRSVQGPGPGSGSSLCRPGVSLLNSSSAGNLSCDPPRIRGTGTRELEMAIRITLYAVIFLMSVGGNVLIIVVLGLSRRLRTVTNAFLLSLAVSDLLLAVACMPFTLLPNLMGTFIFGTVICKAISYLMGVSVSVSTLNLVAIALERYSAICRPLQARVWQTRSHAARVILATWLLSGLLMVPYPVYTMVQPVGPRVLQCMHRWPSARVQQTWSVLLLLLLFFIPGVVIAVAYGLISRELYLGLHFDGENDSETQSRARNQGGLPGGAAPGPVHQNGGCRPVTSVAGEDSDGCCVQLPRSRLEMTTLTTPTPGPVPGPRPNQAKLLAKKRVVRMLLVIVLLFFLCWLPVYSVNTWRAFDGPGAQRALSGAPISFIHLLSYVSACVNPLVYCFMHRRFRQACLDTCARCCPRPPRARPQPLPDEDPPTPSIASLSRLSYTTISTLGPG
Experimental: About 100 SD rats were decapitated without anaesthesia, the whole brain was immediately excised from each of the rats and homogenized in 10-fold volume of 0.32 M aqueous solution of sucrose by the use of a Teflon-coated homogenizer, the homogenate thus obtained was centrifuged for ten minutes at 900 g by the use of a cooled centrifuge, and the supernatant was further centrifuged for 15 minutes at 11500 g. The precipitate thus obtained was dispersed in 50 mM Tris-HCl buffer (pH 7.4) containing 0.08% Triton X-100, this suspension was allowed to stand for 30 minutes and again centrifuged for 15 minutes at 11500 g, the precipitate thus obtained was washed twice with 5 mM Tris-HCl buffer and twice with 50 mM Tris-HCl buffer in that order with centrifugal separation, the washed precipitate was suspended in 50 mM Tris-HCl buffer, and the suspension thus obtained was stored at -80°C until the membrane preparation was required.
The membrane preparations were warmed to room temperature, diluted with 10 mM HEPES buffer (containing 130 mM NaCl, 5 mM MgCl2, 1 mM EGTA and 0.25 mg/ml bacitracin; pH 6.5) and incubated at 25°C for 120 minutes in the presence of [^125I]BH-CCK-8 and the test compound, then separated by suction filtration. Non-specific binding was determined in the presence of 1 µM CCK-8. The amount of labelled ligand bound to the receptor was measured by the use of a γ-counter; IC50 values were determined, being that concentration of test compound required to inhibit specific binding by 50%.

[3] = target: T2, CCK-A receptors (Rattus norvegicus, UniProt P30551); assay: Measurement of binding affinity for CCK-A receptors ([3H]L-364,718 displacement, pancreas membrane preparation); parameters: species or system SD rat
T2 construct: The pancreas of an SD rat was homogenized; from tissue; host or cells: SD rat pancreas membrane preparation
T2 sequence (P30551 1-444): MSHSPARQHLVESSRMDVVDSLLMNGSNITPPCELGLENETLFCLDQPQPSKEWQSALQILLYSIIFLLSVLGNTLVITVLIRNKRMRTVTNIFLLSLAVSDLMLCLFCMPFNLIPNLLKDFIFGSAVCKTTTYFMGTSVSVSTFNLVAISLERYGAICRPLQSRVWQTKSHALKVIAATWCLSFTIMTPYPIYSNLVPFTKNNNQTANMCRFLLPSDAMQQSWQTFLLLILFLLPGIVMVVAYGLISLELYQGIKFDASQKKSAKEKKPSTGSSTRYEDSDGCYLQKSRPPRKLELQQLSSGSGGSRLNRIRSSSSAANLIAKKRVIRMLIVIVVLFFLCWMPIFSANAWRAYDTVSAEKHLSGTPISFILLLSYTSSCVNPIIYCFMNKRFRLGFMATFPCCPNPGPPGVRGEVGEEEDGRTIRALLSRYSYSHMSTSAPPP
Experimental: The pancreas of an SD rat was homogenized in a 20-fold volume of 50 mM Tris-HCl buffer (pH 7.7) by the use of a Polytrone-type homogenizer, the homogenate was twice centrifuged for 10 minutes at 50000 g by the use of an ultra-centrifuge, the precipitate thus obtained was suspended in a 40-fold volume of 50 mM Tris-HCl buffer (containing 0.2% BSA, 5 mM MgCl2, 0.1 mg/ml bacitracin and 5 mM DTT; pH 7.7), and the suspension was stored at -80°C until the membrane preparations were required.
The membrane preparations were then warmed to room temperature, diluted 1:10 with the buffer and incubated at 37°C for 30 minutes in the presence of [^3H]L-364,718 and the test compound then separated by suction filtration. Non-specific binding was determined in the presence of 1 µM L-364,718. The amount of labelled ligand bound to the receptor was measured by the use of a liquid scintillation counter; IC50 values were determined, being that concentration of test compound required to inhibit specific binding by 50%

[4] = rat whole brain membranes, [125I]BH-CCK-8, 25°C, 120 minutes, read-out: Receptor binding affinity IC50(nM) CCK-B
[5] = rat pancreas membranes, [3H]L-364,718, 37°C, 30 minutes, read-out: Receptor binding affinity IC50(nM) CCK-A

SMILES | Inhibidon (dose) ([1]; 3 µmol/kg) | IC50 [2] | A/B Ratio [2] | IC50 [3] | other results
Cc1cccc(NC(=O)NC2N=C(c3ccccn3)c3ccccc3N(CC(=O)C(C)(C)C)C2=O)c1 (racemic) [Example 27, N-((3RS)-1-tert-Butylcarbonylmethyl-2,3-dihydro-2-oxo-5-(2-pyridyl)-1H-1,4-benzodiazepin-3-yl)-N'-(3-methylphenyl) urea] | 66% (3 µmol/kg) | – | – | – | –
CCC(C)(C)C(=O)CN1C(=O)C(NC(=O)Nc2cccc(C)c2)N=C(c2ccccc2)c2ccccc21 (racemic) [Example 36, N-((3RS)-1-tert-Amylcarbonylmethyl-2,3-dihydro-2-oxo-5-phenyl-1H-1,4-benzodiazepin-3-yl)-N'-(3-methylphenyl) urea] | – | 0.57 nM | 1,300 | 720 nM | –
CCC(C)(C)C(=O)CN1C(=O)C(NC(=O)Nc2cccc(C(=O)O)c2)N=C(c2ccccc2)c2ccccc21 (racemic) [Example 37, N-((3RS)-1-tert-Amylcarbonylmethyl-2,3-dihydro-2-oxo-5-phenyl-1H-1,4-benzodiazepin-3-yl)-N'-(3-carboxyphenyl) urea] | – | 1.1 nM | 5,100 | 5600 nM | –
CN(C)c1cccc(NC(=O)NC2N=C(c3ccccn3)c3ccccc3N(CC(=O)C(C)(C)C)C2=O)c1 (racemic) [Example 38, N-((3RS)-1-tert-Butylcarbonylmethyl-2,3-dihydro-2-oxo-5-(2-pyridyl)-1H-1,4-benzodiazepin-3-yl)-N'-(3-dimethylaminophenyl) urea] | 100% (3 µmol/kg) | – | – | – | –
CC(C)(C)C(=O)CN1C(=O)C(NC(=O)Nc2cccc(C(=O)O)c2)N=C(c2ccccn2)c2ccccc21 (racemic) [Example 39, N-((3RS)-1-tert-Butylcarbonylmethyl-2,3-dihydro-2-oxo-5-(2-pyridyl)-1H-1,4-benzodiazepin-3-yl)-N'-(3-carboxyphenyl) urea] | – | 0.1 nM | 2,400 | 240 nM | –
CN(C)c1cccc(NC(=O)NC2N=C(c3ccccc3)c3ccccc3N(CC(=O)C(C)(C)C)C2=O)c1 (racemic) [Example 41, N-((3RS)-1-tert-Butylcarbonylmethyl-2,3-dihydro-2-oxo-5-phenyl-1H-1,4-benzodiazepin-3-yl)-N'-(3-dimethylaminophenyl) urea] | – | 6.2 nM | 1,100 | 6700 nM | –
CC(C)(C)C(=O)CN1C(=O)C(NC(=O)Nc2cccc([N+](=O)[O-])c2)N=C(c2ccccc2)c2ccccc21 (racemic) [Example 45, N-((3RS)-1-tert-Butylcarbonylmethyl-2,3-dihydro-2-oxo-5-phenyl-1H-1,4-benzodiazepin-3-yl)-N'-(3-nitrophenyl) urea] | – | – | 3,700 | 590 nM | –
Cc1cccc(NC(=O)N[C@@H]2N=C(c3ccccc3)c3ccccc3N(CC(=O)C(C)(C)C)C2=O)c1 [Example 26, N-((3R)-1-tert-Butylcarbonylmethyl-2,3-dihydro-2-oxo-5-phenyl-1H-1,4-benzodiazepin-3-yl)-N'-(3-methylphenyl) urea] | 53% (3 µmol/kg) | – | – | – | –
CNc1cccc(NC(=O)N[C@@H]2N=C(c3ccccc3)c3ccccc3N(CC(=O)C(C)(C)C)C2=O)c1 [Example 56, N-((3R)-1-tert-Butylcarbonylmethyl-2,3-dihydro-2-oxo-5-phenyl-1H-1,4-benzodiazepin-3-yl)-N'-(3-methylaminophenyl) urea] | – | – | 1,100 | – | IC50 [2, 4]: 0.11 nM; IC50 [3, 5]: 120 nM
CN(C)c1cccc(NC(=O)N[C@@H]2N=C(c3ccccc3)c3ccccc3N(CC(=O)C(C)(C)C)C2=O)c1 [Example 64, N-((3R)-1-tert-Butylcarbonylmethyl-2,3-dihydro-2-oxo-5-phenyl-1H-1,4-benzodiazepin-3-yl)-N'-(3-dimethylaminophenyl) urea] | 100% (3 µmol/kg) | – | – | – | –
CC(C)(C)C(=O)CN1C(=O)[C@H](NC(=O)Nc2cccc(N)c2)N=C(c2ccccc2)c2ccccc21 [Example 66, N-((3R)-1-tert-Butylcarbonylmethyl-2,3-dihydro-2-oxo-5-phenyl-1H-1,4-benzodiazepin-3-yl)-N'-(3-aminophenyl) urea] | – | – | 1,900 | – | IC50 [2, 4]: 0.5 nM; IC50 [3, 5]: 950 nM
Cc1cccc(NC(=O)N[C@@H]2N=C(c3ccccc3)c3ccccc3N(C)C2=O)c1 [reference compound] | – | – | 410 | – | Inhibidon (dose) ([1]; 100 µmol/kg): 0% (100 µmol/kg); IC50 [2, 4]: 29 nM; IC50 [3, 5]: 12000 nM
